One experiment has as its system LY7 cells. Put plainly: Cell Titer Glo viability, lymphoma cell line LY7 (OCI-LY7, GCB-DLBCL). Type of experiment: cell-based. Conditions: for viability at 15 µM: LY7, 15 uM; for viability at 25 µM: LY7, 25 uM. On the procedure: (§1) Cytotoxicity was performed on cultured cells using Cell Titer Glo, as previously described. Experiments were carried out in 96-well plates, with each treatment in triplicate. Samples were taken at typically 24 hours, 48 hours, and/or 72 hours after treatment, as indicated. Cytotoxicity was expressed by the decreasing percentage of live cells in each treatment relative to the untreated control from the same experiment, as a function of time. IC50 (half the maximal inhibitory concentration) for each cell line was calculated using the CalcuSyn Version 2.0 software (Biosoft).
The lymphoma cell line LY7 was treated with CUX-03166 for 24 hr (diamond), 48 hours (square) and 72 hours (triangle). Viability was determined similar to that for Example 2. […] At 25 uM concentrations, viability dropped to 0% at 24 hours.
(§2) CUX-0404A reduces viability of OCI-LY7 cells (germinal center diffuse large B cell lymphoma, GCB-DLBCL), see FIG. 4. The lymphoma cell line LY7 was treated with CUX-0404A for 24 hours (dark circle), 48 hours (light circle) or CUX0404B for 24 hours (dark square) or 48 hours (light square). Viability was determined similar to that for FIG. 1. At 15 uM concentrations, viability of cells dropped to 60% at 24 hours, ˜42% at 48 hours, At 25 uM concentrations, viability dropped to 0% at 24 hours. FIG. 5. CUX-0404A reduces viability of Z-138 (mantle cel lymphoma, MCL) cells more potently than TG-1202. […] Viability was determined similar to that for FIG. 1. At 25 uM concentrations, viability of cells dropped to 20% for the CUX-0404A treatment as compared to 60% for TGR-1202
A general note: ATP-based viability assays read luminescence as a measure of living cells.

In a further experiment the target is T1, CK1epsilon (Homo sapiens, UniProt P49674).
T1 construct: purchased Reaction Biology
T1 sequence (P49674 whole entry): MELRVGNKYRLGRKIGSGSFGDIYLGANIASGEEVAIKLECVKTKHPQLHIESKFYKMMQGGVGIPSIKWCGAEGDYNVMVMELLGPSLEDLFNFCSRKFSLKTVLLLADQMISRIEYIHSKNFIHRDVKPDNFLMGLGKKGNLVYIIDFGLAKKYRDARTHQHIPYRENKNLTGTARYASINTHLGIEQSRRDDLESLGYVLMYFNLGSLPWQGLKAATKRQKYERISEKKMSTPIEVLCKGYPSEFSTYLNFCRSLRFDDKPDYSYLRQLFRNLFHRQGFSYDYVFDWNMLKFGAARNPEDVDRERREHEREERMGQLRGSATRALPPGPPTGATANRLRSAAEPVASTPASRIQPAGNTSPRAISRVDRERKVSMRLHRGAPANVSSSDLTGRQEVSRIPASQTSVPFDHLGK
Put plainly: CK1ε kinase activity assay (radioisotope filtration binding assay). Type of experiment: biochemical. Conditions: 10 μM ATP, 3-fold serial dilution from 100 μM. The method, then:
The CK-1 assay was conducted according to the techniques disclosed in Anastassiadis et al, Nat Biotechnol; 29(11): 1039-1045. Briefly, specific kinase/substrate pairs along with required cofactors were prepared in reaction buffer; 20 mM Hepes pH 7.5, 10 mM MgCl2, 1 mM EGTA, 0.02% Brij35, 0.02 mg/ml BSA, 0.1 mM Na3VO4, 2 mM DTT, 1% DMSO (for specific details of individual kinase reaction components see Supplementary Table 2, Anastassiadis et al. 2011). Compounds were delivered into the reaction, followed ˜20 minutes later by addition of a mixture of ATP (Sigma, St. Louis Mo.) and 33P ATP (Perkin Elmer, Waltham Mass.) to a final concentration of 10 μM. Reactions were carried out at room temperature for 120 min, followed by spotting of the reactions onto P81 ion exchange filter paper (Whatman Inc., Piscataway, N.J.). Unbound phosphate was removed by extensive washing of filters in 0.75% phosphoric acid. […] IC50 values and curve fits were obtained using Prism (GraphPad Software). • Substrate: Peptide substrate, [KRRRAL[pS]VASLPGL], 20 μM ATP 10 μM • Reaction: Substrate+[γ-33P]-ATP 33P-Substrate+ADP • Assay: radioisotope filtration binding assay (Reaction Biology). […]

The test system of experiment [1] is Z-138 (mantle cel lymphoma, MCL) cells. Put plainly: Cell Titer Glo viability, Z-138 mantle cell lymphoma cells. It is filed as cell-based. Conditions: Homo sapiens; Z-138, 25 uM, 24 hours. The method, then:
as §1, §2

Another experiment deals with LY10 cells. Description: Cell Titer Glo viability, lymphoma cell line LY10. Conditions: for viability at 50 µM: LY10, 50 uM. It is filed as cell-based. On the procedure: as §1
The lymphoma cell line LY10 was treated with CUX-03166 (′166 compound) for 24 hours, 48 hours and 72 hours. Cells were collected from the treatment group and the vehicle treated negative control. Viable cells were quantitated by the Cell-Titer Glo assay from Promega. Viable cells in the treated cells were expressed as a percentage of the negative control. […] At a concentration of 50 uM, viability of cells drop to 0% just at 24 hours of treatment. Cells were also treated with Cal-101 and TGR-1202 and viability was determined at 24 hr. For lower concentrations of 5 μm and 15 μM, viability dropped to ˜80% for both treatments. However, as concentrations increased up to 50 μM, viability remained at ˜80% for Cal-101 and modestly dropped to ˜65% for TGR-1202, as shown in FIG. 1.

Experiment [2] has as its system c-Myc. Description: Western blot of c-Myc level in LY7 (GCB-DLBCL) cells. Type of experiment: cell-based. Conditions: for reduction in c-Myc (Western blot): LY-7, 25 uM, 6 hours. The method, then: (§3) Western blot was performed on whole protein extract from cultured cells under specified treatment conditions, most often for 24 hours. Western blotting was performed according to standard protocols, using the chemiluminescence detection system from Thermo Scientific. The primary antibodies were purchased from Cell Signaling Technology unless specified otherwise, and were against these proteins: 4EBP1, phos-4EBP1, S6K, phos-S6K, Bcl2, Bcl-xL, PARP, c-myc, B-catenin, P-4EBP1 (S65), P-4EBP1 (T70). Signals of beta-actin and GAPDH were used as loading control. Goat anti-rabbit or anti-mouse secondary antibodies were purchased from Santa Cruz Biotechnology.
(§4) The lymphoma cell lines LY10 and LY7 were treated with PF4800567 (PF), Cal-101 (Cal), TGR-1202 (TG) and CUX-03166 as single agents for 6 hours all at 25 uM concentrations. Protein extracts were processed for Western blot using antibodies against c-Myc, B-Catenin, phosphorylated 4EBP1, total 4EBP1, and beta actin.
(§5) FIG. 6. […] Protein extracts were processed for Western blot using antibodies against c-Myc, B-Catenin, phosphorylated 4EBP1, total 4EBP1, P-p70S6K, P70S6K, PARP and beta actin.

Experiment [3] relates to phosphorylation of 4EBP1. Put plainly: Western blot of phosphorylated 4EBP1 in GCB-DLBCL lymphoma cell line. The note with it: 12 hours, 15 and 20 uM. It is filed as cell-based. On the procedure: as §3, §5
On the technique in general: Immunoblotting shows a protein as a band on a membrane.

Experiment [4] relates to c-Myc. Description: Western blot of c-Myc level in LY10 cells. Type of experiment: cell-based. Conditions: LY-10, 25 uM, 6 hours, vs vehicle. On the procedure:
as §3, §4

Experiment [5] deals with phosphorylation of 4EBP1. Put plainly: Western blot of phosphorylated 4EBP1 in LY10 cells. Type of experiment: cell-based. The note with it: LY-10, 25 uM, 6 hours, vs vehicle. On the procedure: as §3, §4
The mark [6] stands for this setting: 24 hours, read-out: viability (viable cells as percentage of negative control).

Read-outs that look alike come from different tables or passages of the source.

One may read the viability as a per cent measure of how many cells are alive, often set against a control. For orientation: IC50 means the concentration that gives 50% inhibition. Low readings indicate higher potency, high ones lower potency. Turning to `CC(C)Oc1ccc(-c2nn([C@@H](C)c3nc4ncc(Br)c(N(C)C)c4c(=O)n3-c3ccccc3)c3ncnc(N)c23)cc1F` [CUX-0404A], the values for the viability at 15 µM in the experiment with LY7 cells (24 hours) and in the experiment with LY7 cells (48 hours) were 60% and roughly 42%, respectively. Moreover, the viability at 25 µM with LY7 cells (24 hours) was 0%; in experiment [1], 20%; in the experiment with LY10 cells (LY10 (as printed in summary), 25 μM, 24 hours, read-out: viability), 0%. The half-maximal inhibitory concentration (IC50) on CK1epsilon came out at 3.21 µM. In addition, in the experiment with LY10 cells (LY10 (as printed in summary), 20 μM, 48 hours), the viability at 20 µM came out at 0%. In addition, the “c-myc level (Western blot)” value in the experiment with c-Myc [2] (GCB-DLBCL lymphoma cell line, 12 hours, 20 uM) is listed as “undetectable”. Moreover, the “reduction of c-Myc level (Western blot)” value in the experiment with c-Myc [2] (GCB-DLBCL lymphoma cell line, 12 hours, 15 and 20 uM, vs vehicle) is on record as “significantly greater reduction”. Also, the “inhibition of phosphorylation of 4EBP1 (Western blot)” value in the experiment on phosphorylation of 4EBP1 [3] is listed as “Potent Inhibition”.

`CC[C@@H](c1nc2cccc(F)c2c(=O)n1-c1ccccc1)n1nc(-c2ccc(OC(C)C)c(F)c2)c2c(N)ncnc21` [CUX-03166]: the viability at 15 µM was 40% in the experiment on LY7 cells (24 hours), 10% in the experiment with LY7 cells (48 hours) and roughly 0% with LY7 cells (72 hours). In addition, the viability at 25 µM is 0% with LY7 cells (24 hours) and 0% in the experiment on LY10 cells (LY10, 25 uM, 48 hours, read-out: viability (viable cells as percentage of negative control)). Further, the viability at 50 µM in the experiment on LY10 cells (setting [6]) is 0%. Moreover, in the experiment with c-Myc [4], the “inhibition of the c-Myc level (Western blot)” value is reported as “significantly greater reduction”. For the same molecule, the “increase in potency in inhibiting c-Myc compared to TGR-1202” value with c-Myc [2] (LY7 cells, Western blot) was “near-fiftyfold increase in potency”. Further, the “reduction in c-Myc (Western blot)” value in the experiment with c-Myc [2] is on record as “undetectable level”.

On to `CC[C@H](Nc1ncnc2[nH]cnc12)c1nc2cccc(F)c2c(=O)n1-c1ccccc1` [Cal-101, reference compound], for which the viability at 50 µM with LY10 cells (setting [6]) is roughly 80%.

For the molecule `Nc1ncnc2c1c(COc1cccc(Cl)c1)nn2C1CCOCC1` [PF4800, reference compound], the “inhibition of phosphorylation of 4EBP1 (Western blot)” value in the experiment with phosphorylation of 4EBP1 [5] is recorded as “moderate inhibition”. Besides, in the experiment with c-Myc [4], the “inhibition of the c-Myc level (Western blot)” value was “moderate inhibition”. The “reduction in c-Myc (Western blot)” value in the experiment on c-Myc [2] is recorded as “modest reduction”.

Source of the values: patent US10882863B2, “Compounds for reducing c-Myc in c-Myc overexpressing cancers background” (The Trustees of Columbia University in the City of New York, priority 2016, dated 2021).
